Reference: patent US11066392B2, “Inhibitors of indoleamine 2,3-dioxygenase and methods of their use” (BRISTOL-MYERS SQUIBB COMPANY, priority 2017, dated 2021)
Like-named read-outs stand apart in the source and are kept apart here.

Target: indoleamine 2,3-dioxygenase (IDO) (Homo sapiens, UniProt P14902)
Assay: HeLa cell-based indoleamine 2,3-dioxygenase (IDO) assay (kynurenine production, IFNγ-stimulated)
Details: HeLa cells
[1] = IFNγ 25 ng/mL, 48 hour incubation, read-out: IDO Hela IC50
[2] = potency class, read-out: Patent Potency Hela IC50 A < 10 nM, B > 10 nM, C > 100 nM

indoleamine 2,3-dioxygenase (IDO), sequence (P14902 whole entry): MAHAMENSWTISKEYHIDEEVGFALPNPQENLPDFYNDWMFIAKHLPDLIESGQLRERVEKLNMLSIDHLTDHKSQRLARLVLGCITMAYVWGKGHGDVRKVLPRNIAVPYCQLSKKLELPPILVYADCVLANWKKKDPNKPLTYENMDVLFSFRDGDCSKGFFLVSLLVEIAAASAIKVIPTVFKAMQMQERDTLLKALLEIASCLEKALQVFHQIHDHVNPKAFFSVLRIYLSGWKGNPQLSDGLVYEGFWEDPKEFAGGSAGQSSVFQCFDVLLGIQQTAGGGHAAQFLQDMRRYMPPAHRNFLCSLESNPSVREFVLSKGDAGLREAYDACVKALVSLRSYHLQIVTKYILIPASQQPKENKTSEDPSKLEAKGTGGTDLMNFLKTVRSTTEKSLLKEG

`CCC(NC(=O)c1cnc(OC)nc1)[C@H]1CC[C@@H](c2ccnc(OC)c2C(F)F)CC1` (single isomer, unassigned) [Example 25b, N-(1-((1s,4s)-4-(3-(Difluoromethyl)-2-methoxypyridin-4-yl)cyclohexyl)propyl)-2-methoxypyrimidine-5-carboxamide] gave an IC50 [1] of 10 nM.
With `COCCOCC(NC(=O)c1ccc(OC)nc1)C1CCC(c2ccnc3ccc(F)cc23)CC1` (single isomer, unassigned) [Example 15a, N-(1-((1s,4s)-4-(6-Fluoroquinolin-4-yl)cyclohexyl)-2-(2-methoxyethoxy)ethyl)-6-methoxynicotinamide] the IC50 [2] was less than 10 nM.
Compound `COCCOCC(NC(=O)c1cnc(OC)nc1)C1CCC(c2ccnc3ccc(F)cc23)CC1` (single isomer, unassigned) [Example 16b, N-(1-((1s,4s)-4-(6-Fluoroquinolin-4-yl)cyclohexyl)-2-(2-methoxyethoxy)ethyl)-2-methoxypyrimidine-5-carboxamide] has an IC50 [2] of less than 10 nM.
Work on `CCC(NC(=O)c1ccc(OC)nc1)[C@H]1CC[C@H](c2ccnc(F)c2C)CC1` (mixture of isomers) [Example 67, (±)-N-(1-((1r,4r)-4-(2-fluoro-3-methylpyridin-4-yl)cyclohexyl)propyl)-6-methoxynicotinamide] yielded an IC50 [2] greater than 100 nM.
Compound `COc1ccc(C(=O)N[C@H](CC2(C)COC2)[C@H]2CC[C@@H](c3ccnc4ccc(C(F)(F)F)cc43)CC2)cn1` (single isomer, unassigned) [Example 17d, 6-Methoxy-N-(2-(3-methyloxetan-3-yl)-1-(4-(6-(trifluoromethyl)quinolin-4-yl)cyclohexyl)ethyl)nicotinamide] has an IC50 [2] greater than 100 nM.
`CCC(NC(=O)c1ccc(OC)nc1)C1CCC(c2ccnc(F)c2C)CC1` (single isomer, unassigned) [Example 68-2, N-(1-((1r,4r)-4-(2-Fluoro-3-methylpyridin-4-yl)cyclohexyl)propyl)-6-methoxynicotinamide] was tested, and the IC50 [2] was greater than 100 nM.
`CCC(NC(=O)c1ccc(OC)nc1)C1CCC(c2ccnc3cc(C(F)(F)F)ccc23)CC1` (single isomer, unassigned) [Example 19b, 6-Methoxy-N-(1-((1s,4s)-4-(7-(trifluoromethyl)quinolin-4-yl)cyclohexyl)propyl)nicotinamide] gave an IC50 [1] of 10 nM.
`COCCOCC(NC(=O)c1cnc(OC)nc1)C1CCC(c2ccnc3ccc(F)cc23)CC1` (single isomer, unassigned) [Example 16a, N-(1-((1s,4s)-4-(6-Fluoroquinolin-4-yl)cyclohexyl)-2-(2-methoxyethoxy)ethyl)-2-methoxypyrimidine-5-carboxamide] gave an IC50 [1] of 40 nM.
`COc1ccc(C(=O)NC(CC#N)[C@H]2CC[C@@H](c3ccnc4ccc(F)cc43)CC2)cn1` (mixture of isomers) [Example 54, Cis or trans-N-(2-cyano-1-((1s,4s)-4-(6-fluoroquinolin-4-yl)cyclohexyl)ethyl)-6-methoxynicotinamide] showed an IC50 [1] of 10 nM.
Compound `CC[C@H](NC(=O)c1ccc(OC)nc1)[C@H]1CC[C@@H](c2cncc(OC)c2)CC1` (single isomer, unassigned) [Example 50d, 6-methoxy-N-(1-(4-(5-methoxypyridin-3-yl)cyclohexyl)propyl)nicotinamide] has an IC50 [1] of 220 nM.
In the case of `CCC(NC(=O)c1ccc(OC)nc1)C1CCC(c2ccnc(OC(F)F)c2)CC1` (single isomer, unassigned) [Example 30d, N-(1-(4-(2-(Difluoromethoxy)pyridin-4-yl)cyclohexyl)propyl)-6-methoxynicotinamide], the IC50 [1] is reported as 250 nM.
With `CCOC[C@@H](NC(=O)c1ccc(OC)nc1)[C@H]1CC[C@@H](c2ccnc3ccc(C(F)(F)F)cc32)CC1` (single isomer, unassigned) [Example 13a, N-(2-Ethoxy-1-(4-(6-(trifluoromethyl)quinolin-4-yl)cyclohexyl)ethyl)-6-methoxynicotinamide] the IC50 [1] was 80 nM.
`CC[C@H](NC(=O)c1cnc(C)nc1)[C@H]1CC[C@H](c2ccnc3c(F)cccc32)CC1` (single isomer, unassigned) [Example 61b, N-(1-(4-(8-fluoroquinolin-4-yl)cyclohexyl)propyl)-2-methylpyrimidine-5-carboxamide] was tested, and the IC50 [1] was 670 nM.
`CCC(NC(=O)c1ccc(OC)nc1)[C@H]1CC[C@@H](c2nccc(C)n2)CC1` (single isomer, unassigned) [Example 49a, (±)-6-methoxy-N-(1-(4-(4-methylpyrimidin-2-yl)cyclohexyl)propyl)nicotinamide] showed an IC50 [1] of 70 nM.
`CC[C@@H](NC(=O)c1cnc(OC)nc1)[C@H]1CC[C@@H](c2ccnc3c(F)cccc32)CC1` (single isomer, unassigned) [Example 60c, N-(1-(4-(8-fluoroquinolin-4-yl)cyclohexyl)propyl)-2-methoxypyrimidine-5-carboxamide] gave an IC50 [1] of 10 nM.
`CCC(NC(=O)c1ccc(OC)nc1)C1CCC(c2ccnc(OC)c2C)CC1` (single isomer, unassigned) [Example 28a, 6-Methoxy-N-(1-((1s,4s)-4-(2-methoxy-3-methylpyridin-4-yl)cyclohexyl)propyl)nicotinamide] gave an IC50 [1] of 540 nM.
With `COCCOCC(NC(=O)c1ccc(OC)nc1)C1CCC(c2ccnc3ccc(F)cc23)CC1` (single isomer, unassigned) [Example 15b, N-(1-((1s,4s)-4-(6-Fluoroquinolin-4-yl)cyclohexyl)-2-(2-methoxyethoxy)ethyl)-6-methoxynicotinamide] the IC50 [1] was 10 nM.
`CC[C@@H](NC(=O)c1ccc(OC)nc1)[C@H]1CC[C@@H](c2ccnc3ncccc32)CC1` (single isomer, unassigned) [Example 53a, N-(1-(4-(1,8-naphthyridin-4-yl)cyclohexyl)propyl)-6-methoxynicotinamide] gave an IC50 [1] of 10 nM.
In the case of `CCC(NC(=O)c1ccc(OC)nc1)C1CCC(c2ccnc(F)c2C)CC1` (single isomer, unassigned) [Example 68-1, N-(1-((1r,4r)-4-(2-Fluoro-3-methylpyridin-4-yl)cyclohexyl)propyl)-6-methoxynicotinamide], the IC50 [2] is reported as greater than 10 nM.
Work on `CC[C@@H](NC(=O)c1ccc(OC)nc1)[C@H]1CC[C@@H](c2ccnc3c(F)cccc32)CC1` (relative stereo) [Example 59b, N-(1-(4-(8-fluoroquinolin-4-yl)cyclohexyl)propyl)-6-methoxynicotinamide] yielded an IC50 [2] of less than 10 nM.
`[2H]C([2H])([2H])Oc1ccc(C(=O)NC(CC)C2CCC(c3ccnc(OC)c3C(F)F)CC2)cn1` (single isomer, unassigned) [Example 66-2, N-(1-((1s,4s)-4-(3-(difluoromethyl)-2-methoxypyridin-4-yl)cyclohexyl)propyl)-6-(methoxy-d3)nicotinamide] showed an IC50 [2] of less than 10 nM.
Work on `CCC(NC(=O)c1ccc(OC)nc1)C1CCC(c2cccc(=O)n2C)CC1` (single isomer, unassigned) [Example 32b, 6-Methoxy-N-(1-(4-(1-methyl-6-oxo-1,6-dihydropyridin-2-yl)cyclohexyl)propyl)nicotinamide] yielded an IC50 [1] of 80 nM.
With `CCC(NC(=O)c1ccc(=O)[nH]c1)[C@H]1CC[C@@H](c2ccnc(OC)c2C(F)F)CC1` (some centres unmarked) [Example 63-2, N-(1-((1s,4s)-4-(3-(difluoromethyl)-2-methoxypyridin-4-yl)cyclohexyl)propyl)-6-oxo-1,6-dihydropyridine-3-carboxamide] the IC50 [2] was greater than 10 nM.
